Row | Compound | melting point [°C]
1 | O=C(C=CC(F)(F)F)Nc1ccc2ncnc(Nc3cccc(Br)c3)c2c1 | 273 to 278
2 | Cc1c(C=NO)c2ccccc2n1C(=O)c1ccc(Cl)cc1 | 152
3 | CCCCCCCCOC(=O)n1c(-c2cscn2)nc2ccccc21 | 66 to 67.5
4 | COC(=O)c1ccc(C#CC#C[Si](C)(C)C)cc1 | 67 to 68
5 | COc1cc(N)ccc1S(=O)(=O)Nc1ccc(C)cc1 | 158 to 160
6 | O=C1Nc2cccc(-c3cncnc3)c2C12COc1cc3c(cc12)OCO3 (stereo not drawn) | 185 to 187
7 | COc1cc(C=CC(=O)c2cc(OC)c(OC)c(OC)c2)cc(C(F)(F)F)c1O | 190 to 192
8 | O=CN(c1cccc(C(F)(F)F)c1)c1cccc(C(F)(F)F)c1 | 63 to 65
9 | CSc1nc(N)nc(N2CCc3ccccc3CC2)c1C#N | 164 to 168
10 | C[Si](C)(C)CCOC(=O)c1cccc2nnsc12 | 37 to 39
11 | Cc1cccc(C)c1NS(=O)(=O)c1cc(S(=O)(=O)Nc2c(C)cccc2C)c2cc(O)ccc2c1 | 162 to 164
12 | Cc1cnc(NC(=O)Nc2ccc(N3CCN(C(=O)Nc4ccc(OCCO)cc4C(F)(F)F)CC3)cc2)s1 | 118 to 120
13 | COc1ccc(Cn2c(=O)c(Cl)nc3ccc4ccccc4c32)c(OC)c1 | 186
14 | CCOC=C(C=C(C#N)C#N)CCc1ccc(C(=O)OC)cc1 | 136 to 137
15 | CCCCc1nn2c(-c3ccccc3)cnc2n1Cc1ccc(-c2ccccc2-c2nnn[nH]2)cc1 | > 70
16 | CC(C(O)=S)c1sc(S(N)(=O)=O)cc1[N+](=O)[O-] (stereo not drawn) | 154 to 155
17 | CC(C)=CCc1c(O)cc(O)cc1-c1cc2ccc(O)cc2o1 | 82 to 83
18 | O=C(c1ccccc1)N1CCc2cc(S(=O)(=O)n3cc(-c4ccccc4)[nH]c3=O)ccc21 | 167 to 170
19 | CCOC(=O)CCN=c1sc2ccccc2s1 | 61 to 62
20 | O=C(Cc1ccc(F)cc1)c1ccc(OC(F)F)cc1 | 50 to 56
21 | Cc1ccc([N+](=O)[O-])cc1S(=O)(=O)N1CCOCC1 | 114 to 115
22 | CC(C#N)(c1ccccc1)c1ccc([N+](=O)[O-])cc1 (stereo not drawn) | 76 to 78
23 | CC(C)c1ccc(Nc2ccccc2[N+](=O)[O-])c(C#N)c1 | 91 to 96
24 | COP(=O)(OC)C(O)[C@H](CC1CCCCC1)NC(=O)[C@H](CC(C)C)NC(=O)OCc1ccccc1 (stereo partly drawn) | 151
25 | Cc1cccc(Sc2ccc(C(=O)O)s2)c1 | 73 to 75
26 | O=C(NC12CC3CC(CC(C3)C1)C2)c1cc(O)c(O)c(Cl)c1 | 244 to 247

Row | Compound | melting point [°C]
27 | Nc1ccccc1Sc1ncc[nH]1 | 135 to 137
28 | Clc1cc(Cl)c(OCOCOc2c(Cl)cc(Cl)cc2Cl)c(Cl)c1 | 179 to 181
29 | COc1ccc(/C=C/CNc2cccc(-c3ccnc4c(C(=O)c5cccs5)cnn34)c2)cc1 | 176 to 179
30 | C#CCc1ccc2onc3c2c1OCC=N3 | 104 to 106
31 | COCCCC(=O)c1cc(C(=O)O)c2cc(Cc3ccc(F)cc3)cnc2c1O | 226 to 228
32 | O=C(O)C1=Cc2cc(Cl)c(Sc3ccccc3)cc2OC1C(F)(F)F (stereo not drawn) | 272 to 274
33 | O=C(O)C1CCN(CC2CN(CC3CCN(c4ccncc4)CC3)C(=O)O2)CC1 (stereo not drawn) | 94 to 96
34 | CCC(=O)OCC(OC(=O)CC)C1OC(OC(=O)CC)C(OC(=O)CC)C1OC(=O)CC (stereo not drawn) | 74.5 to 75.5
35 | COC(=O)c1ccnc(Nc2cc(OC)cc(C(F)(F)F)c2)c1 | 178 to 179
36 | CC(=O)N(CCCC(=O)O)C1CCCc2ccccc21 (stereo not drawn) | 141 to 142
37 | CCC(C)n1c2ccccc2c2ccccc21 (stereo not drawn) | 62 to 63
38 | CCCOC1=NS(=O)(=O)N(C)C(Oc2ccc([N+](=O)[O-])cc2)=N1 | 129 to 131
39 | C=CCN1CC(OC(=O)c2ccccc2)CC1=O (stereo not drawn) | 56 to 67
40 | O=C(O)CNc1csc2ccccc12 | 195 to 198
41 | CN(C)Cc1nc(C(N)=O)nn1-c1ccc(Cl)cc1C(=O)c1ccccc1Cl | 177 to 180
42 | O=C(NCc1ccc(Cl)cc1)c1cn(CCc2ccccc2)c2oc(CCl)cc2c1=O | 150 to 153
43 | CCCS(=O)(=O)Cc1cc2oc(S(N)(=O)=O)cc2cn1 | 167 to 169
44 | CCCCCCCCCCCCCCOc1ccc(C(=O)OC)cc1OCCCCCCCCCCCCCC | 50 to 51
45 | N#CSCC(=O)N1CCCC1 | 95 to 96
46 | C[C@@H](n1ccnc1)C(O)(c1ccc(Cl)cc1)c1ccc(Cl)cc1 | 159 to 161
47 | O=C(O)c1ccn2c1C(c1cccnc1)CC2 (stereo not drawn) | 210
48 | Cc1noc([C@@H](Cc2ccccc2)NC(=O)[C@@H](Cc2ccc3ccccc3c2)NC(=O)C=CC(C)(C)NC(=O)OC(C)(C)C)n1 | 161 to 167
49 | CCOC(=O)c1cc2cc(-c3ccc(C(C)=O)cc3)ccc2o1 | 105 to 107
50 | Oc1ccc(CN2CCN(CCCN3CCN(Cc4ccc(O)cc4)CC3)CC2)cc1 | 197 to 201
51 | Cc1cccc(NC(=O)NCC(=O)N2[C@@H](C(=O)OC(C)(C)C)C[C@@H](C(=O)N(C)C)[C@H]2c2ccccc2)c1 (racemic) | 199
52 | Cc1nc(Cl)c2c(c1O)COC2c1ccccc1 (stereo not drawn) | 230

Row | Compound | melting point [°C]
53 | CN(C)Cc1cnc2n1-c1ccc(Cl)cc1C(c1ccccc1)=NC2 | 181 to 182
54 | O=C(O)CC1c2ccccc2C=Cc2ccccc21 | 167 to 168
55 | CCc1nc(-c2cccc(C)c2)c(-c2ccnc(N(C)C(=O)Cc3ccccc3)c2)s1 | 75 to 76
56 | CCOC(=O)C(=O)Nc1ccc(C#N)cc1 | 188
57 | COC(=O)C[C@H]1C[C@@H](CCc2c(-c3ccc(F)cc3)c(-c3ccc(F)cc3)cn2C(C)C)OC(C)(C)O1 | 55 to 57
58 | CSc1nc(NCc2ccc(-c3ccccn3)cc2)n2ncc(C(C)C)c2n1 | 136 to 138
59 | CCOC(=O)c1cn(-c2cc(NC(=O)OC(C)(C)C)c(F)cc2F)c2cc(F)c(C)cc2c1=O | 205 to 207
60 | CCOC(=O)c1cc2c3ccccc3ncn2c1 | 138 to 139
61 | CCOC(=O)c1cc(S(=O)(=O)N2c3ccccc3-c3ccccc3C2C)ccc1OCC (stereo not drawn) | 113 to 115
62 | OC[C@@H]1C[C@@H](C2CCCCC2)CN1 | 98 to 99
63 | C=C(C)C(=O)N1CC(C)OC1(C)C (stereo not drawn) | 24
64 | COc1ccc(Cn2ccnc2)cc1 | 157 to 159
65 | O=C(O)c1cn(C2CC2)c2c(F)c(N3CCC(n4cncn4)C3)c(F)cc2c1=O (stereo not drawn) | 220 to 221
66 | CCCCCCCCCCCCCCCCCCS(=O)(=O)Nc1cc(C(=O)Nc2ccccc2)ccc1OC | 154 to 156
67 | CC(C)(C)c1cc(C=C2CON(C(N)=O)C2=O)cc(C(C)(C)C)c1O | 178 to 181
68 | Cc1ccsc1C(=O)c1cccn1N | 42 to 44
69 | O=S1(=O)c2cccc3cccc(c23)N1CCN1CCN(c2noc3ccccc23)CC1 | 148
70 | COc1cc(OC)nc(NN)n1 | 94
71 | CN1CCCC2C(=NO)CCCC21 (stereo not drawn) | 169 to 171
72 | CCOC(=O)NCC#N | 49
73 | O=C(c1ccc(Cl)cc1)N(c1ccccc1)c1ccc(O)cc1 | 224 to 225
74 | Nc1nc(=O)n(C2CC(O)C(CO)O2)cc1-c1ccccn1 (stereo not drawn) | 197 to 198
75 | BrCC1(c2ccc3c(c2)Cc2ccccc2-3)OCCO1 | 90
76 | CC1(CS(=O)(=O)c2ccccc2)COC2(CCC(=O)CC2)OO1 (stereo not drawn) | 96
77 | O=[N+]([O-])c1ccc(CP2(=O)OCCO2)cc1 | 144 to 145
78 | COc1ccc(CC(C)NC(C)=O)cc1OCc1ccccc1 (stereo not drawn) | 139

Row | Compound | melting point [°C]
79 | CC(C)c1n[nH]c2c(NCc3ccco3)ncnc12 | 179 to 182
80 | CCOC(=O)C1=C(C)NC(c2cscn2)=NC1c1cccc(Cl)c1 (stereo not drawn) | 105 to 108
81 | COc1c(N2CCNCC2)c(F)cc2c(=O)c(C(=O)O)cn(C3CC3)c12 | 177 to 178
82 | CC1(C)OCC([N+](=O)[O-])CO1 | 60 to 61
83 | CCc1c[nH]c2c3c(ccc12)OCC3 | 91 to 92.5
84 | CNc1coc2ccccc2c1=S | 134
85 | C#CCNC(=O)Oc1cccc2c1OC(C)(C)O2 | 107 to 109
86 | O=C1CN(Cc2n[nH]c(=O)[nH]2)[C@@H](c2ccccc2)[C@@H](COCc2cc(C(F)(F)F)cc(C(F)(F)F)c2)N1 | 138 to 140
87 | COc1ccnc(C(=O)N[C@H]2COC[C@H](OCCC(C)C)[C@@H](OCCC(C)C)[C@H](C)OC2=O)c1O | 61 to 70
88 | CSc1nc2ccc(CCc3nc4cc(C)ccn4c3C)cc2o1 | 106 to 107
89 | CCn1c(=O)c2c(nc(/C=C/c3ccc(F)c(Br)c3)n2C)n(CC)c1=O | 218 to 219
90 | CCOC(=O)[C@@H]1Cc2ccc([N+](=O)[O-])cc2CN1 | 94 to 95
91 | COC=C(C(=O)OC)c1ccccc1CSc1ccc2ccccc2c1 | 52 to 58
92 | CC(C)(O)c1cnn2c(-c3ccc(F)c(-c4ccccc4C#N)c3)cnc2n1 | 187
93 | Cn1cc(C(=O)NCCCN)c(Nc2ccc(I)cc2F)cc1=O | 201 to 206
94 | CCOc1cc2oc(=O)c3c(c2cc1OCC)CCN(CCN1CC2CCC(CC2)C1)C3 | 132 to 134
95 | O=C1CC2Cc3cc(N4CCCCC4)ccc3C2=NN1 (stereo not drawn) | 252 to 254
96 | NC1C(=O)N(CCCO)c2ccccc2N(c2ccccc2)C1=O (stereo not drawn) | 55 to 58
97 | O=C1C2CC(O)CCN2C(=O)N1c1ncc(Cl)cc1F (stereo not drawn) | 183 to 185
98 | CCC1CC2C3CCC4=CC(=O)CCC4=C3C=CC2(C)C1O (stereo not drawn) | 139 to 141
99 | CSc1ccc(C=CC#N)cc1 | 79
100 | CCOC(=O)C=Cc1ccc(Oc2c(-c3ccc(OC)cc3)ccc3cc(OC)ccc23)cc1 | 94 to 97
101 | CC(C)=NOCc1nc2c(N)nc(C)c(C)c2n1CCCCN(C(N)=O)C1CCCCC1 | 210 to 212
102 | Cc1cc(-c2c3ccccc3c(C)c3sc4ccccc4c23)cc(C)c1O | 147 to 149
103 | CC1(c2ccccc2)Cc2c3c(c(Cl)c(Cl)c2C1=O)OC(C(=O)O)C3 (stereo not drawn) | 188
